According to patent US8106007B2, “Conjugates of a polypeptide and a pentasaccharide” (N.V. Organon, priority 2005, dated 2012):
Where two headings read alike, the source gives them in different places. Where a SMILES comes first, the peptide text is derived from it. [ ]: non-standard residue; d: D form. The star is where a group is joined. X1 = CO[C@H]1O[C@H](COS(=O)(=O)O)[C@@H](O[C@@H]2O[C@@H](C(=O)O)[C@@H](O[C@H]3O[C@H](COS(=O)(=O)O)[C@@H](O[C@@H]4O[C@H](C(=O)O)[C@@H](O[C@H]5O[C@H](COS(=O)(=O)O)[C@@H](OCCOCCOCCOCCNC(=O)COCCOCCOCCOCCSC6CC(=O)N(CCCC(=O)*)C6=O)[C@H](OC)[C@H]5OC)[C@H](OC)[C@H]4OC)[C@H](OS(=O)(=O)O)[C@H]3OS(=O)(=O)O)[C@H](OC)[C@H]2OC)[C@H](OS(=O)(=O)O)[C@H]1OS(=O)(=O)O; d(hArg(Et2)) = CCN=C(NCC)NCCCC[C@@H](N)C(=O)O; hArg(Et2) = CCN=C(NCC)NCCCC[C@H](N)C(=O)O; dPhe(4-Cl) = N[C@H](Cc1ccc(Cl)cc1)C(=O)O; d2Nal = N[C@H](Cc1ccc2ccccc2c1)C(=O)O; d3Pal = N[C@H](Cc1cccnc1)C(=O)O

What was measured:
[1] = Pharmacokinetics in rat after 125I labeling, not corrected for dehalogenation
Procedure: (§1) After labeling, the conjugate was purified by gel filtration on Sephadex G25 and anion exchanger HiTrap Q10. […] In order to prevent accumulation of ^125I^− in the thyroid, rats were orally treated with 10 mg/kg potassium iodide prior to administration of compound.
The correct determination of the fate of ^125I-labeled conjugates might be affected aversely by metabolic intracellular endogenous dehalogenation to give free ^125I^− in circulation.

hATIII = hATIII (Homo sapiens, UniProt P01008); test: Competitive hATIII binding assay using Biomolecular Interaction Analysis (BIA); settings: for competitive binding potential to ATIII (in words): compared to parent pentasaccharide-spacer residue / parent peptide; for IC50: 15 nmol/L hATIII, compound 9 immobilised on chip, 25° C., read-out: IC50 BIA (competitive ATIII binding)
hATIII, sequence (P01008 33-464): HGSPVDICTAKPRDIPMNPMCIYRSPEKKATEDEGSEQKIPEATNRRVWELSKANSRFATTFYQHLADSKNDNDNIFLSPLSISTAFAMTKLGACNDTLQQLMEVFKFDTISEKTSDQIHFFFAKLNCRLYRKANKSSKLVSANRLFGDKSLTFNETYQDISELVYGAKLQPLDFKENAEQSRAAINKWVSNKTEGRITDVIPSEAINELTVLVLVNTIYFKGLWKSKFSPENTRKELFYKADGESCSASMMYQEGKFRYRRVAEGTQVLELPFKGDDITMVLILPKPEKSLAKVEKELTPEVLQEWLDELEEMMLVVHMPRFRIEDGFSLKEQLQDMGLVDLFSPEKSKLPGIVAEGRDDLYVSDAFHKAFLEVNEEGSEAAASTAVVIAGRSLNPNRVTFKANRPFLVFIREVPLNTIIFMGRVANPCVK
Procedure: The sensorgrams and report points were analysed with blanc flow cell subtraction using BIAevaluation 3.2. IC50 values were calculated using graphpad Prism 3.0.
Principle and aim of the test: Biomolecular Interaction Analysis (BIA) studies the interaction between (bio)molecules by covalent immobilisation of one of the interactants to a sensor chip surface, and injection of the other interactant in the continuous buffer flow over this surface. Binding is registered as a change in refractive index on this surface and is proportional to the molecular weight (Mw) of the interactants.
To study the interaction between hATIII and pentasaccharide conjugates, compound 9 is covalently coupled to the sensor chip surface. Binding of hATIII to the pentasaccharide generates a strong signal as a resultant of the difference in Mw between the bound (small) pentasaccharide ligand and the (large) hATIII analyte. Preincubated samples containing a constant concentration of hATIII and variable concentrations of free pentasaccharide or conjugate were injected over the surface. Binding of pentasaccharide or conjugate to ATIII during preincubation will result in a reduction of ATIII binding to the immobilised pentasaccharide. This competitive binding assay allows determination of IC50 values for each pentasaccharide conjugate.
Experimental procedure: Compound 9 is covalently coupled to a CM5 sensor chip by amine coupling at pH 8.5. […] The unreacted hydroxysuccinimide groups are reacted with ethanolamine for 7 min. The surface is regenerated by three short injections of 5 μL 5 mol/L NaCl, at a flow rate of 25 μL/min.
A concentration series of hATIII was tested to estimate a sensitive concentration for inhibition (at 80% of maximum binding). At a flow rate of 20 μL/min three minute injections were carried out at both blanc and immobilised surface in series at 25° C. A report point is generated at 170 s. The surface is regenerated by a 12 s injection of 5 mol/L NaCl.
The hATIII injection or report point without pentasaccharide conjugate is set at 100% binding. The relative % binding of the pentasaccharides and the conjugates compared to maximum binding was used to generate a sigmoidal curve (with variable slope) by plotting Log [concentration] vs. % binding from which the IC50 values were derived.

[2] = in rat, i.v., Chan et al. 1991; cited from earlier work
[3] = species not given; cited from earlier work
glucose levels = test: Glucose suppression test in vivo in rats; set-up: species or system rat; settings: i.v. doses of 24 and 48 nmol/kg (FIG. 21, 22)
Procedure: The animals were fasted overnight (16 hours) prior to the experiment. In the morning blood was sampled from all the rats by cutting a little piece of the tail, after which the blood was dropped on a test strip and the glucose levels were measured with an ACCU-Check Sensor blood glucose monitor (Roche Diagnostics). […] At various time intervals blood samples were taken by removing the crusted blood, after which the glucose content was determined immediately as described.

rat ATIII = target: T1, rat ATIII (Rattus norvegicus, UniProt A0A8I5Y9G3); test: Determination of (poly)peptide-pentasaccharide-ATIII complex in rat plasma (sandwich ELISA); type: binding; settings: plasma 1 min after i.v. 3.5 nmol/kg in rat
T1 construct: from tissue; host or cells: plasma of male Wistar rats
T1 sequence (A0A8I5Y9G3 35-465): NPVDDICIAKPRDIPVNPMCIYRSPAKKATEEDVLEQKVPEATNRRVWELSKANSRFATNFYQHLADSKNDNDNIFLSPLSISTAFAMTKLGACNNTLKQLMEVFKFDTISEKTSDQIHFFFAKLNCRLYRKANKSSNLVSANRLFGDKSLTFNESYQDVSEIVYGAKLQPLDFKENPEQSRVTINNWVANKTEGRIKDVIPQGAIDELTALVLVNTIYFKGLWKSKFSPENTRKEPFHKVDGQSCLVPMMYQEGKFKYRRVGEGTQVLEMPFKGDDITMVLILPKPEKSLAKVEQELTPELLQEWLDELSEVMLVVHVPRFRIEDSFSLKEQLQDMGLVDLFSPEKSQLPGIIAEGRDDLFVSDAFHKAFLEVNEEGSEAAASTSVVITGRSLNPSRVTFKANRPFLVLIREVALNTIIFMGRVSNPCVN

[4] = rat, in vivo, iv, 3.5 nmol/kg
Excerpt: The human Enzyme-Linked Immuno-Sorbent Assay (ELISA) has been developed to measure human insulin in human and rat plasma or buffer system. In this way the ELISA could be used to determine the insulin concentration in plasma samples derived from pharmacokinetic experiments.
The assay is based on the immunochemical “sandwich” principle using two monoclonal antibodies, i.e. a solid phase bound, capture antibody and a detection antibody which is labeled with horseradish peroxidase (HRP).
The plate was washed to remove unbound enzyme-labeled antibody and subsequently the 3,3′,5,5′-tetramethylbenzidine/H2O2 substrate solution was added. The reaction was stopped with 0.5 M sulphuric acid and the microtiter plate was read spectrophotometrically at 450 nm. The intensity of colour is directly proportional to the concentration of insulin. Then for each plasma sample the mean concentration (mol/L) of insulin was determined.
The rats were anaesthetized by inhalation of a mixture of O2/N2O/isoflurane, after which the right jugular vein was cannulated. […] Blood was centrifuged after which the plasma was siphoned off and stored at −20° C. until use. The concentration of the tested compounds in the plasma samples were determined using the human ELISA against a calibration curve which was made of the stock solution of the tested compound itself. The concentration in the samples was expressed in nmol/L and the kinetic parameters were calculated with the noncompartment model of WinNonlin.

[5] = rat, in vivo, iv
Procedure: as §1

[6] = Table 6, rat, i.v., 125I label, not corrected for dehalogenation, n = 3

CC[C@H](C)[C@H](NC(=O)[C@H](CCC(N)=O)NC(=O)[C@H](Cc1c[nH]cn1)NC(=O)[C@H](C)N)C(=O)N[C@@H](Cc1ccc(O)cc1)C(=O)N[C@@H](CCC(N)=O)C(=O)N[C@@H](Cc1ccccc1)C(=O)N[C@H](C(=O)N[C@@H](CC(=O)O)C(=O)N[C@@H](CCCCN)C(=O)N[C@@H](CC(=O)O)C(=O)N[C@@H](CCCCN)C(=O)N[C@@H](CC(=O)O)C(=O)N[C@@H](CC(N)=O)C(=O)N[C@H](C(=O)N[C@@H](C)C(=O)N1CCC[C@H]1C(=O)N[C@@H](CCCNC(=N)N)C(=O)N[C@@H](CO)C(=O)N[C@@H](CCCCN)C(=O)N[C@H](C(=O)N[C@@H](CO)C(=O)N1CCC[C@H]1C(=O)N[C@@H](CCC(N)=O)C(=O)NCC(=O)N[C@@H](Cc1ccc(O)cc1)C(N)=O)[C@@H](C)CC)C(C)C)[C@@H](C)O [ADM(27-52)] (H-AHQIYQFTDKDKDNVAPRSKISPQGY-NH2; N-terminus and C-terminus assumed)
Cl ([1]; rat, in vivo, iv): 112 ± 9 mL/h | Vss ([1]; rat, in vivo, iv): 556 ± 48 ml/rat | competitive binding potential to ATIII (in words) (hATIII): no significant competitive binding to ATIII

COC[C@H]1O[C@H](OC)[C@H](OS(=O)(=O)O)[C@@H](OC)[C@@H]1O[C@@H]1O[C@@H](C(=O)O)[C@@H](O[C@H]2O[C@H](COS(=O)(=O)O)[C@@H](O[C@@H]3O[C@H](C(=O)O)[C@@H](O[C@H]4O[C@H](COS(=O)(=O)O)[C@@H](OCCOCCOCCOCCN)[C@H](OC)[C@H]4OC)[C@H](OC)[C@H]3OC)[C@H](OS(=O)(=O)O)[C@H]2OS(=O)(=O)O)[C@H](OC)[C@H]1OC [Compound 7]
IC50 (hATIII): 96 nM

COC1OC(COS(=O)(=O)O)C(OC2OC(C(=O)O)C(OC3OC(COS(=O)(=O)O)C(OC4OC(C(=O)O)C(OC5OC(COS(=O)(=O)O)C(OCCOCCOCCOCCN)C(OC)C5OC)C(OC)C4OC)C(OS(=O)(=O)O)C3OS(=O)(=O)O)C(OC)C2OC)C(OC)C1OS(=O)(=O)O (stereo not drawn) [Compound 8]
IC50 (hATIII): 58 nM

COC1OC(COS(=O)(=O)O)C(OC2OC(C(=O)O)C(OC3OC(COS(=O)(=O)O)C(OC4OC(C(=O)O)C(OC5OC(COS(=O)(=O)O)C(OCCOCCOCCOCCN)C(OC)C5OC)C(OC)C4OC)C(OS(=O)(=O)O)C3OS(=O)(=O)O)C(OC)C2OC)C(OS(=O)(=O)O)C1OS(=O)(=O)O (stereo not drawn) [Compound 9]
IC50 (hATIII): 5.5 nM

CC[C@H](C)[C@H](NC(=O)[C@H](CCC(N)=O)NC(=O)[C@H](Cc1c[nH]cn1)NC(=O)[C@H](C)NC(=O)CCCN1C(=O)CC(SCCOCCOCCOCCOCC(=O)NCCOCCOCCOCCO[C@H]2[C@H](OC)[C@@H](OC)[C@@H](O[C@H]3[C@H](OC)[C@@H](OC)[C@H](O[C@H]4[C@H](OS(=O)(=O)O)[C@@H](OS(=O)(=O)O)[C@@H](O[C@H]5[C@H](OC)[C@@H](OC)[C@H](O[C@H]6[C@H](OS(=O)(=O)O)[C@@H](OS(=O)(=O)O)[C@@H](OC)O[C@@H]6COS(=O)(=O)O)O[C@H]5C(=O)O)O[C@@H]4COS(=O)(=O)O)O[C@@H]3C(=O)O)O[C@@H]2COS(=O)(=O)O)C1=O)C(=O)N[C@@H](Cc1ccc(O)cc1)C(=O)N[C@@H](CCC(N)=O)C(=O)N[C@@H](Cc1ccccc1)C(=O)N[C@H](C(=O)N[C@@H](CC(=O)O)C(=O)N[C@@H](CCCCN)C(=O)N[C@@H](CC(=O)O)C(=O)N[C@@H](CCCCN)C(=O)N[C@@H](CC(=O)O)C(=O)N[C@@H](CC(N)=O)C(=O)N[C@H](C(=O)N[C@@H](C)C(=O)N1CCC[C@H]1C(=O)N[C@@H](CCCNC(=N)N)C(=O)N[C@@H](CO)C(=O)N[C@@H](CCCCN)C(=O)N[C@H](C(=O)N[C@@H](CO)C(=O)N1CCC[C@H]1C(=O)N[C@@H](CCC(N)=O)C(=O)NCC(=O)N[C@@H](Cc1ccc(O)cc1)C(N)=O)[C@@H](C)CC)C(C)C)[C@@H](C)O (stereo partly drawn) [Compound 39] (X1-AHQIYQFTDKDKDNVAPRSKISPQGY-NH2)
Cl [1, 6]: 5.0 ± 0.1 mL/h | Vss [1, 6]: 80 ± 3.3 ml/rat

[125IH] [^125I^−]
elimination half-life ([1]; rats, control, data not shown): 192 min

CCN=C(NCC)NCCCC[C@H](NC(=O)[C@H](CC(C)C)NC(=O)[C@@H](CCCCNC(=NCC)NCC)NC(=O)[C@H](Cc1ccc(O)cc1)NC(=O)[C@H](CO)NC(=O)[C@@H](Cc1cccnc1)NC(=O)[C@@H](Cc1ccc(Cl)cc1)NC(=O)[C@@H](Cc1ccc2ccccc2c1)NC(C)=O)C(=O)N1CCC[C@H]1C(=O)N[C@H](C)C(N)=O [ganirelix] (Ac-[d2Nal][dPhe(4-Cl)][d3Pal]SY[d(hArg(Et2))]L[hArg(Et2)]P[dA]-NH2)
T½ [2]: 84 min | t ½ [3]: 720 min | competitive binding potential to ATIII (in words) (hATIII): no competitive binding to ATIII

C[C@@H](O)[C@@H]1NC(=O)[C@H](CCCCN)NC(=O)[C@@H](Cc2c[nH]c3ccccc23)NC(=O)[C@H](Cc2ccccc2)NC(=O)[C@@H](NC(=O)[C@H](N)Cc2ccccc2)CSSC[C@@H](C(=O)N[C@H](CO)[C@@H](C)O)NC1=O [octreotide]
t ½ [3]: 102 min

calcitonin
t ½ [3]: 20 min

insulin detemir
blood glucose lowering activity (comparative example) (glucose levels): less pronounced and less prolonged activity

recH insulin: recombinant human insulin (batch SIHR017, from Diosynth)
binding to rat ATIII in circulation (complex detected) (rat ATIII): cannot form a complex with ATIII | Cl [4]: 13.3 ± 2 mL/min/kg | MRT [4]: 0.84 ± 6 min | T½ eli [4]: 1.98 ± 0.06 min | Vss [4]: 0.012 ± 0.002 L/kg | AUCinf [5]: 481 h · cpm/0.1 mL | Cl [5]: 69.3 mL/min/kg | MRT [5]: 30 min | Vss [5]: 2.225 L/kg
